Results taken from US9708314B2, “Heterocyclic amide compound” (NISSAN CHEMICAL INDUSTRIES, LTD., priority 2013, dated 2017).

Key:
Assay type in all cases: in vivo
[1] = test system: transplanted Oryza sativa; test: Test Example 1: effect on crop, application before weed generation in submerged conditions; details: Application herbicide amount 320 g/ha; Seventeenth Table
Method in brief: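 Pre-emergence water-surface application under 4 cm flooding, same day as sowing, with rice transplanted at 2.5 leaf stage. Dose given as g/ha. Plants grown at 25° C. to 30° C. and rated three weeks later on a 0 (≤5%) to 5 (≥90%) herbicidal-ratio scale.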

[2] = test system: directly sowed Oryza sativa; test: Test Example 3: effect on crop by application to foliage (Wagner pot, water depth 0.1-0.5 cm); details: Nineteenth Table; application to foliage; application herbicide amount 320 g/ha
Method in brief: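 Alluvial soil in 1/10000 are Wagner pots, sown and grown 14 days in a 25–30 °C greenhouse. An emulsifiable concentrate diluted in water to the set dose (g/ha) was sprayed on stems and leaves. Effect scored three weeks later on a 0–5 scale: 5 = ≥90% herbicidal ratio, 0 = ≤5%.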

Stellaria media = test: Test Example 4: herbicidal effect by application to foliage (diluvial soil, plastic box); details: for P (Stellaria media) herbicidal effect grade: Application herbicide amount 320 g/ha, foliage application
Method in brief: (§1)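 Seeds sown in sterilized diluvial soil, covered ~1.5 cm, grown 14 days in greenhouse at 25° C. to 30° C. Emulsion formulation diluted in water to set rate (g/ha) and sprayed onto stems and leaves. Effect scored visually 3 weeks later on 0–5 scale (5 = ≥90% herbicidal ratio, 0 = ≤5%).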

[3] = test system: Beta vulgaris ssp. vulgaris; test: Test Example 4: effect on crop by application to foliage (diluvial soil, plastic box); details: for f (Beta vulgaris ssp. vulgaris) effect on crop grade: Application herbicide amount 320 g/ha, foliage application
Method in brief: as §1

Zea mays = test: as above; details: for c (Zea mays) effect on crop grade: Application herbicide amount 320 g/ha, foliage application
Method in brief: as §1

Triticum aestivum = test: as above; details: for e (Triticum aestivum) effect on crop grade: Application herbicide amount 320 g/ha, foliage application
Method in brief: as §1

Brassica campestris L. = test: as above; details: for g (Brassica campestris L.) effect on crop grade: Application herbicide amount 320 g/ha, foliage application
Method in brief: as §1

[4] = test system: directly sowed Oryza sativa; test: as above; details: for b (directly sowed Oryza sativa) effect on crop grade: Application herbicide amount 320 g/ha, foliage application
Method in brief: as §1

Glycine max = test: as above; details: for d (Glycine max) effect on crop grade: Application herbicide amount 320 g/ha, foliage application
Method in brief: as §1

[5] = application to foliage, application herbicide amount 320 g/ha

| Compound | a: transplanted Oryza sativa (effect on crop grade) [1] | b (effect on crop grade) [2] | P: herbicidal effect on Stellaria media (Stellaria media; [5]) | f: effect on crop, Beta vulgaris ssp. vulgaris [3, 5] | c: effect on crop, Zea mays (Zea mays; [5]) | e: effect on crop, Triticum aestivum (Triticum aestivum; [5]) | g: effect on crop, Brassica campestris L. (Brassica campestris L.; [5]) | b: effect on crop, directly sowed Oryza sativa [4, 5] | d: effect on crop, Glycine max (Glycine max; [5]) | P (Stellaria media) herbicidal effect grade (Stellaria media) | f (Beta vulgaris ssp. vulgaris) effect on crop grade [3] | c (Zea mays) effect on crop grade (Zea mays) | e (Triticum aestivum) effect on crop grade (Triticum aestivum) | g (Brassica campestris L.) effect on crop grade (Brassica campestris L.) | b (directly sowed Oryza sativa) effect on crop grade [4] | d (Glycine max) effect on crop grade (Glycine max) |
| --- | --- | --- | --- | --- | --- | --- | --- | --- | --- | --- | --- | --- | --- | --- | --- | --- |
| Cc1cc(-c2nnc3c(C(=O)Nc4nnnn4C)ccc(C(F)(F)F)n23)no1 [2-017] | 4 (Herbicidal ratio of 70% or more and less than 90%) | 5 (Herbicidal ratio of 90% or more (almost completely withered)) | 5 (Herbicidal ratio of 90% or more (almost completely withered)) | 5 (Herbicidal ratio of 90% or more (almost completely withered)) | 1 (Herbicidal ratio of 5% or more and less than 20%) | 3 (Herbicidal ratio of 40% or more and less than 70%) | 4 (Herbicidal ratio of 70% or more and less than 90%) | 5 (Herbicidal ratio of 90% or more (almost completely withered)) | 4 (Herbicidal ratio of 70% or more and less than 90%) |  |  |  |  |  |  |  |
| Cc1nnc(NC(=O)c2ccc(C(F)(F)F)n3c(N4CC[S+]([O-])CC4)nnc23)o1 [1-119] | 3 (Herbicidal ratio of 40% or more and less than 70%) | 3 (Herbicidal ratio of 40% or more and less than 70%) |  |  |  |  |  |  |  | 4 (Herbicidal ratio of 70% or more and less than 90%) | 5 (Herbicidal ratio of 90% or more (almost completely withered)) | 2 (Herbicidal ratio of 20% or more and less than 40%) | 3 (Herbicidal ratio of 40% or more and less than 70%) | 5 (Herbicidal ratio of 90% or more (almost completely withered)) | 3 (Herbicidal ratio of 40% or more and less than 70%) | 4 (Herbicidal ratio of 70% or more and less than 90%) |
| Cc1nnc(NC(=O)c2ccc(C(F)(F)F)n3c(SCc4ccccc4)nnc23)o1 [1-113] | 0 (Herbicidal ratio of 5% or less (almost no effect)) | 0 (Herbicidal ratio of 5% or less (almost no effect)) |  |  |  |  |  |  |  | 4 (Herbicidal ratio of 70% or more and less than 90%) | 3 (Herbicidal ratio of 40% or more and less than 70%) | 0 (Herbicidal ratio of 5% or less (almost no effect)) | 0 (Herbicidal ratio of 5% or less (almost no effect)) | 0 (Herbicidal ratio of 5% or less (almost no effect)) | 0 (Herbicidal ratio of 5% or less (almost no effect)) | 0 (Herbicidal ratio of 5% or less (almost no effect)) |
| Cc1nnc(NC(=O)c2ccc(C(F)(F)F)n3c(SCC4OCCO4)nnc23)o1 [1-126] | 0 (Herbicidal ratio of 5% or less (almost no effect)) | 0 (Herbicidal ratio of 5% or less (almost no effect)) |  |  |  |  |  |  |  | 5 (Herbicidal ratio of 90% or more (almost completely withered)) | 5 (Herbicidal ratio of 90% or more (almost completely withered)) | 1 (Herbicidal ratio of 5% or more and less than 20%) | 0 (Herbicidal ratio of 5% or less (almost no effect)) | 3 (Herbicidal ratio of 40% or more and less than 70%) |  | 2 (Herbicidal ratio of 20% or more and less than 40%) |
| Cc1nnc(NC(=O)c2ccc(C(F)(F)F)n3c(NCC(F)(F)F)nnc23)o1 [1-131] | 0 (Herbicidal ratio of 5% or less (almost no effect)) | 2 (Herbicidal ratio of 20% or more and less than 40%) |  |  |  |  |  |  |  | 3 (Herbicidal ratio of 40% or more and less than 70%) | 3 (Herbicidal ratio of 40% or more and less than 70%) | 0 (Herbicidal ratio of 5% or less (almost no effect)) | 0 (Herbicidal ratio of 5% or less (almost no effect)) | 0 (Herbicidal ratio of 5% or less (almost no effect)) |  | 3 (Herbicidal ratio of 40% or more and less than 70%) |
| O=C(Nc1nnco1)c1ccc(C(F)(F)F)n2c(N3CCCC3)nnc12 [1-139] | 2 (Herbicidal ratio of 20% or more and less than 40%) | 1 (Herbicidal ratio of 5% or more and less than 20%) |  |  |  |  |  |  |  | 5 (Herbicidal ratio of 90% or more (almost completely withered)) | 5 (Herbicidal ratio of 90% or more (almost completely withered)) | 0 (Herbicidal ratio of 5% or less (almost no effect)) | 1 (Herbicidal ratio of 5% or more and less than 20%) | 4 (Herbicidal ratio of 70% or more and less than 90%) |  | 3 (Herbicidal ratio of 40% or more and less than 70%) |
| CCN(C)c1nnc2c(C(=O)Nc3nnc(C)o3)ccc(C(F)(F)F)n12 [1-134] | 0 (Herbicidal ratio of 5% or less (almost no effect)) | 2 (Herbicidal ratio of 20% or more and less than 40%) |  |  |  |  |  |  |  | 4 (Herbicidal ratio of 70% or more and less than 90%) | 5 (Herbicidal ratio of 90% or more (almost completely withered)) | 0 (Herbicidal ratio of 5% or less (almost no effect)) | 1 (Herbicidal ratio of 5% or more and less than 20%) | 4 (Herbicidal ratio of 70% or more and less than 90%) |  | 3 (Herbicidal ratio of 40% or more and less than 70%) |
| CSCCNc1nnc2c(C(=O)Nc3nnc(C)o3)ccc(C(F)(F)F)n12 [1-130] | 1 (Herbicidal ratio of 5% or more and less than 20%) | 2 (Herbicidal ratio of 20% or more and less than 40%) |  |  |  |  |  |  |  | 3 (Herbicidal ratio of 40% or more and less than 70%) | 5 (Herbicidal ratio of 90% or more (almost completely withered)) | 0 (Herbicidal ratio of 5% or less (almost no effect)) | 0 (Herbicidal ratio of 5% or less (almost no effect)) | 4 (Herbicidal ratio of 70% or more and less than 90%) |  | 3 (Herbicidal ratio of 40% or more and less than 70%) |
| COCCN(C)c1nnc2c(C(=O)Nc3nnc(C)o3)ccc(C(F)(F)F)n12 [1-129] | 1 (Herbicidal ratio of 5% or more and less than 20%) | 3 (Herbicidal ratio of 40% or more and less than 70%) |  |  |  |  |  |  |  | 5 (Herbicidal ratio of 90% or more (almost completely withered)) | 5 (Herbicidal ratio of 90% or more (almost completely withered)) | 2 (Herbicidal ratio of 20% or more and less than 40%) | 1 (Herbicidal ratio of 5% or more and less than 20%) | 3 (Herbicidal ratio of 40% or more and less than 70%) |  | 4 (Herbicidal ratio of 70% or more and less than 90%) |
